Measurements from US11033538B2, “Dosing regimens for the treatment of lysosomal storage diseases using pharmacological chaperones” (Amicus Therapeutics, Inc., priority 2007, dated 2021).
Where “and” joins values, the source holds several entries; their conditions need not be identical. Equal entries are not always repeated. Where two headings read alike, the source gives them in different places.

Experiments:
[1] = test system: GL-3; assay: Example 15, podocyte GL-3 by electron microscopy stereology; format: in vivo, human; settings: after 6 months of DGJ
Source text: This decrease correlated with % reduction in podocyte GL-3 volume (r=0.79, p=0.02). […] The sensitive quantitative method used can assess treatment efficacy for this important cell type over a relatively short period of time. This method is also more sensitive than the methods described above in the kidney analysis of Example 5 (as shown in FIG. 14), as well as the methods earlier in this example relating to qualitative assessment of podocyte GL-3.

[2] = test system: patients with Fabry disease; assay: Example 15, safety analysis and adverse events; format: in vivo, human
Source text: Randomized patients receiving ≥1 dose were included in the safety analysis, which comprised vital signs, physical exams, electrocardiograms, clinical labs, and adverse events.

[3] = test system: α-GAL; assay: Example 8, α-GAL activity in cell lines expressing Fabry missense mutations; format: cell-based
Source text: Cell lines were constructed to express one of 75 Fabry missense mutations. […] 20 of the 75 cell lines expressed a missense mutation corresponding to later-onset Fabry disease.

[4] = test system: GL-3; assay: Example 15, kidney interstitial capillary GL-3 inclusions; format: in vivo, human
Source text: The tertiary objectives were cardiac function, patient-reported outcomes, exploratory kidney analyses, and white blood cell α-galactosidase activity. Study completers were eligible to enroll in the open-label study—AT1001-041/NCT01458119—for up to 5 years.
Each patient underwent a baseline kidney biopsy, as well as repeat kidney biopsies at 6 and 12 months. The number of GL-3 inclusions per kidney interstitial capillary per patient at baseline, and at 6 and 12 months was quantitatively assessed in 300 capillaries by 3 independent pathologists blinded to treatment and visit. All values for each individual biopsy at a given time were averaged prior to statistical analysis.
Two other Stage 1 endpoints were assessed (modified-ITT population: randomized patients with paired baseline and month 6 biopsies; n=60): percent change in GL-3 inclusions per interstitial capillary, and percent of interstitial capillaries with zero GL-3 inclusions.

[5] = target: T1, α-GAL (Homo sapiens, UniProt P06280, R301Q); assay: Example 8, α-GAL expression in tissues of transgenic mice expressing R301Q; format: in vivo; settings: 100 mg/kg ad libitum, four weeks
T1 construct: from tissue; host or cells: skin, heart, kidney of transgenic mice
T1 sequence (P06280 32-429 R301Q): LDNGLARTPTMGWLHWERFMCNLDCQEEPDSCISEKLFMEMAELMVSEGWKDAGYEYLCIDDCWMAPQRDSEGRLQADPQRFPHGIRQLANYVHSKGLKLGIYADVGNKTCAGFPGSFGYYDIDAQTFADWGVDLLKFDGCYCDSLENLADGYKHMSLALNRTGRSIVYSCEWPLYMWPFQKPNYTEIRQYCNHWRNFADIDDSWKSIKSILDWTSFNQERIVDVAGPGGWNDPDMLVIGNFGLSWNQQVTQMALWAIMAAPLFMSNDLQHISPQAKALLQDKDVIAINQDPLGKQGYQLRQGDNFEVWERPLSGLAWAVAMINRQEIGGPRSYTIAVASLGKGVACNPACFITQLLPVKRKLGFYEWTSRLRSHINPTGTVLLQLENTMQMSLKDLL

[6] = test system: α-GAL; format: in vivo, human; settings: first eleven patients treated at least 12 weeks; two regimens
Protocol: Eight patients in the study received an ascending dose of 25, 100, and then 250 mg b.i.d. over 6 weeks, followed by 50 mg/day for the remainder of the study.
For purposes of calculating the percentage of normal in the table, the level of α-GAL that is normal was derived by using the average of the levels of α-GAL in white blood cells of 15 healthy volunteers from the multiple-dose Phase I study.

[7] = test system: patients with Fabry disease; assay: Example 15, renal function assessment; format: in vivo, human
Protocol: Annualized rates of change (mL/min/1.73 m^2/year) were calculated using Chronic Kidney Disease Epidemiology Collaboration-eGFRCKD-EPI) and measured iohexol clearance-mGFRiohexol).

[8] = Phase Ib twice-daily dose study of DGJ in healthy volunteers, plasma and urine pharmacokinetics; format: in vivo, human
Protocol: Subjects were housed in the treatment facility from 14 hours prior to dosing until 24 hours after dosing. Meals were controlled by schedule and subjects remained abulatory for 4 hours post drug administration
Blood samples (10 mL each) were collected in blood collection tubes containing EDTA before dosing and at the following times thereafter: 0.25, 0.5, 0.75, 1, 1.5, 2, 3, 4, 5, 6, 7, 8, 9, 10, 11 and 12 hours. Blood samples were cooled in an ice bath and centrifuged under refrigeration as soon as possible. Plasma samples were divided into two aliquots and stored at […]. pending assay. At the end of the study, all samples were transferred to MDS Pharma Services Analytical Laboratories (Lincoln) for analysis.

[9] = test system: lyso-Gb3; assay: Example 15, plasma lyso-Gb3; format: in vivo, human
Protocol: Plasma lyso-Gb3 and 24-hour urine GL-3 were analyzed by liquid chromatography-mass-spectroscopy using a novel stable isotope-labeled internal standard, 13C6-lyso-Gb3 (lower-limit-of-quantification: 0.200 ng/mL, 0.254 nmol/L).

[10] = open-label-extension, 6/57 patients
[11] = up to 24 months of DGJ, mITT-suitable
[12] = human, plasma, oral, 50 mg, 50 mg bid, Day 1
[13] = human, plasma, oral, 50 mg, 50 mg bid, Day 7
[14] = human, plasma, oral, 150 mg, 150 mg bid, Day 1
[15] = human, plasma, po, 150 mg, oral 150 mg DGJ hydrochloride

SMILES: OC[C@H]1NC[C@H](O)[C@@H](O)[C@H]1O [DGJ, (2R,3S,4R,5S)-2-(hydroxymethyl) piperdine-3,4,5-triol]
- mean±SD V(Inc/PC), GL-3 inclusion volume per podocyte ([1]; baseline 2568±1408, N=8 males, p=0.0182): 1282±792 μm^3
- mean podocyte volume ([1]; baseline 6680±2835, p=0.004): 3525±2084 μm^3
- patients with serious adverse events ([2]; Stage 1, DGJ arm): 2 patients
- nasopharyngitis frequency ([2]; Stage 1, DGJ, 6/34 patients): 18%
- headache frequency ([2]; Stage 1, DGJ, 12/34 patients): 35%
- procedural pain frequency ([2]; Stage 2, 7/63 patients, related to kidney biopsies): 11%
- headache frequency ([2]; Stage 2, 9/63 patients): 14%
- serious adverse events possibly related to DGJ ([2]; fatigue and paresthesia, same patient, months 12-24, resolved): Two serious adverse events were assessed as possibly related to DGJ
- deaths ([2]; in vivo): No deaths were reported
- discontinuation due to adverse events ([2]; in vivo): No adverse events led to DGJ discontinuation
- severity of adverse events ([2]; in vivo): Most adverse events were mild or moderate in severity
- vital sign, physical findings, laboratory and ECG parameters ([2]; in vivo): did not reveal any clinically relevant effect of DGJ
- bronchitis frequency [2, 10]: 11%
- headache frequency [2, 10]: 11%
- proteinuria frequency ([2]; open-label-extension, 9/57 patients): 16%
- patients whose 24-hour urine protein remained stable during DGJ treatment ([2]; patients with baseline proteinuria <300 mg/24-h): 23/28
- cell lines in which DGJ enhanced α-GAL activity ([3]; 47 of the 75 cell lines): 63%
- cell lines with increase in enzymatic activity ([3]; classic Fabry mutations, 34 of 57 cell lines): 60%
- cell lines with increase in α-GAL activity ([3]; later-onset Fabry mutations, 19 of 20 cell lines): 95%
- reduction in interstitial capillary GL-3 (±SEM) ([4]; 6 months of DGJ, mITT-suitable, p=0.008 vs placebo): −0.250±0.103
- patients achieving a response (>50% reduction in GL-3 inclusions per interstitial capillary) ([4]; 6 months, ITT, 150 mg DGJ HCl every other day, 13 of 32, p=0.30 vs placebo): 41%
- median change in interstitial capillary GL-3 from baseline ([4]; 6 months, p=0.097 vs placebo): −40.8%
- mean difference for the change in % of interstitial capillaries with zero GL-3 inclusions, in favor of DGJ ([4]; 6 months, vs placebo, p=0.042): 7.3%
- interstitial capillary GL-3 reduction after additional treatment ([4]; additional 6 months of treatment): remained stable
- reduction in interstitial capillary GL-3 (±SEM) ([4]; at 12 months, patients switching from placebo to DGJ at 6 months, p=0.014): −0.330±0.152
- treatment effect in interstitial capillary GL-3 ([4]; patients with mutant α-galactosidase not suitable for DGJ therapy): did not show any treatment effect in interstitial capillary GL-3
- α-GAL expression in the skin, heart and kidney [5]: increased
- patients with an increase in α-GAL activity [6]: 10 of the 11
- eGFRCKD-EPI or mGFRIohexol changes, DGJ vs placebo ([7]; baseline to month 6, mITT-suitable): no statistically significant differences
- annualized change in eGFRCKD-EPI (±SEM) [7, 11]: −0.30±6.6 mL/min/1.73 m^2
- annualized change in mGFRiohexol (±SEM) [7, 11]: −1.51±1.33 mL/min/1.73 m^2
- 12 h cumulative renal excretion ([8]; 50 mg bid, Day 1): 16% and 16 ± 6%
- 12 h cumulative renal excretion ([8]; 50 mg bid, Day 7): 48% and 48 ± 7%
- Cmin ([8]; 50 mg bid, Day 7): 0.4 ± 0.03 µM
- dose dependence of Cmax ([8]; 50 mg to 150 mg): increased in a dose-proportional manner
- 12 h cumulative renal excretion ([8]; 150 mg bid, Day 1): 42% and 42 ± 7%
- 12 h cumulative renal excretion ([8]; 150 mg bid, Day 7): 60% and 60 ± 5%
- Cmax ([8]; 150 mg bid, Day 7): 10.8 ± 1.4 µM
- Cmin ([8]; 150 mg bid, Day 7): 1.2 ± 0.1 µM
- time of peak concentrations, on average ([8]; all dose levels): approximately 3 hours
- oral availability ([8]; healthy male volunteers): orally available
- Cmax [8, 12]: 2.3 ± 0.3 µM
- Tmax [8, 12]: 2.9 ± 0.4 h
- Cmax [8, 13]: 3.9 ± 0.5 µM
- Tmax [8, 13]: 2.5 ± 0.4 h
- Cmax [8, 14]: 11.3 ± 1.5 µM
- Tmax [8, 14]: 3.1 ± 0.4 h
- Tmax ([8]; human, plasma, oral, 150 mg, 150 mg bid, Day 7): 2.9 ± 0.4 h
- half-life ([8]; human, plasma, oral, 50 mg bid, Day 1, read-out: t½ (converted)): 150 min
- half-life ([8]; human, plasma, oral, 150 mg bid, Day 1, read-out: t½ (converted)): 144 min
- Cmax [8, 15]: 9 µM
- Tmax [8, 15]: 3 h
- half-life ([8]; human, plasma, po, 150 mg, read-out: Half-life (exponential decay) (converted)): 180 min
- Mean plasma lyso-Gb3 ([9]; after 6 months of DGJ, baseline 118±48, N=8 males, p=0.0004): 75 ± 42 nM
- plasma lyso-Gb3 levels ([9]; six months of DGJ, mITT-suitable, p=0.0033): significant reduction in plasma lyso-Gb3 levels compared to placebo
- plasma lyso-Gb3 ([9]; switching from placebo to DGJ between 6 and 12 months, p<0.0001): significant reduction in plasma lyso-Gb3
